Reference: patent US11203600B2 (Denali Therapeutics Inc., priority 2017, dated 2021)

Target: GST-hRIPK1 (8-327) (Homo sapiens (Human), UniProt Q13546)
Assay: Fluorescent Polarization Binding (FP Binding) assay, RIPK1
Details: 10 nM GST-hRIPK1 (8-327), 5 nM fluorescent-labeled ligand, RT, 30 min, mean of at least two independent experiments
How it was run: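 Binding by fluorescence polarisation at RT: 10 nM baculovirus-expressed GST-hRIPK1 (8-327) and 5 nM fluorescent ligand, 30 min, in 50 mM HEPES pH 7.5, 50 mM MgCl2, 0.02% CHAPS, 1% DMSO. FP read at ex 531/em 595 nm. IC50 from normalised percent inhibition, mean of ≥2 experiments.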

GST-hRIPK1 (8-327), sequence (Q13546 8-327): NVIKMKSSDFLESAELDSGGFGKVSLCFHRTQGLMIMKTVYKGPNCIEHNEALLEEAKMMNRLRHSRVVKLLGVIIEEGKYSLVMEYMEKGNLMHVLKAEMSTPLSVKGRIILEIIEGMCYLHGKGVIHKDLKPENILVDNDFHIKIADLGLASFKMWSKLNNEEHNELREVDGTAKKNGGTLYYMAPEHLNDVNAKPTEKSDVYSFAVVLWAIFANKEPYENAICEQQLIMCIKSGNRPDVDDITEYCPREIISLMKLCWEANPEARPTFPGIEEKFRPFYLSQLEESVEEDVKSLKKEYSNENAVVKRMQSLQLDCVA

Structure (SMILES) | IC50 [nM]
COc1ccnc(N2CCC(C(=O)N3Cc4cncc(C#N)c4OC[C@H]3C)CC2)n1 [Example 119, (3R)-4-(1-(4-methoxypyrimidin-2-yl)piperidine-4-carbonyl)-3-methyl-2,3,4,5-tetrahydropyrido[3,4-f][1,4]oxazepine-9-carbonitrile] | 0.1 to 100
COc1nc(N2CCC(OC)(C(=O)N3CCOc4c(C#N)cncc4C3)CC2)nc(C)c1F [Example 195, 4-[1-(5-fluoro-4-methoxy-6-methyl-pyrimidin-2-yl)-4-methoxy-piperidine-4-carbonyl]-3,5-dihydro-2H-pyrido[3,4-f][1,4]oxazepine-9-carbonitrile] | > 1000
C[C@@H]1COc2c(C#N)cncc2CN1C(=O)C(C)(C)C [Example 78, (3R)-4-(2,2-dimethylpropanoyl)-3-methyl-3,5-dihydro-2H-pyrido[3,4-f][1,4]oxazepine-9-carbonitrile] | 0.1 to 100
CC(C)(CC#N)C(=O)N1CCOc2c(F)cccc2C1 [Example 14, 4-(9-fluoro-3,5-dihydro-2H-1,4-benzoxazepin-4-yl)-3,3-dimethyl-4-oxo-butanenitrile] | 0.1 to 100
CC(C)(C(=O)N1CCOc2ccccc2C1)C(F)F [Example 7, 1-(3,5-dihydro-2H-1,4-benzoxazepin-4-yl)-3,3-difluoro-2,2-dimethyl-propan-1-one] | 0.1 to 100
CC(C(=O)N1CCOc2c(F)cccc2C1)C(F)(F)F (stereo not shown) [Example 17, 3,3,3-trifluoro-1-(9-fluoro-3,5-dihydro-2H-1,4-benzoxazepin-4-yl)-2-methyl-propan-1-one] | > 1000
COc1cnc(N2CCC(F)(C(=O)N3CCOc4c(C#N)cncc4C3)CC2)nc1 [Example 101, 4-[4-fluoro-1-(5-methoxypyrimidin-2-yl)piperidine-4-carbonyl]-3,5-dihydro-2H-pyrido[3,4-f][1,4]oxazepine-9-carbonitrile] | 100 to 1000
CC(C)(CC#N)C(=O)N1CCOc2c(F)cncc2C1 [Example 70, 4-(9-fluoro-2,3-dihydropyrido[3,4-f][1,4]oxazepin-4(5H)-yl)-3,3-dimethyl-4-oxobutanenitrile] | 100 to 1000
COC1(C(=O)N2CCOc3c(F)cncc3C2)CCN(c2ncc(F)c(OCC(F)F)n2)CC1 [Example 132, (1-(4-(2,2-difluoroethoxy)-5-fluoropyrimidin-2-yl)-4-methoxypiperidin-4-yl)(9-fluoro-2,3-dihydropyrido[3,4-f][1,4]oxazepin-4(5H)-yl)methanone] | 0.1 to 100
CC(C)(C(=O)N1CCOc2c(F)cncc2C1)C(F)(F)F [Example 79, 3,3,3-trifluoro-1-(9-fluoro-3,5-dihydro-2H-pyrido[3,4-f][1,4]oxazepin-4-yl)-2,2-dimethyl-propan-1-one] | 100 to 1000
CCC(C)(C(=O)N1CCOc2c(C#N)cncc2C1)C(F)(F)F (stereo not shown) [Example 67, 4-[2-methyl-2-(trifluoromethyl)butanoyl]-3,5-dihydro-2H-pyrido[3,4f][1,4]oxazepine-9-carbonitrile] | 0.1 to 100
CC(C)(CF)C(=O)N1CCOc2c(C#N)cncc2C1 [Example 144, 4-(3-fluoro-2,2-dimethyl-propanoyl)-3,5-dihydro-2H-pyrido[3,4-f][1,4]oxazepine-9-carbonitrile] | 0.1 to 100
COc1nc(N2CCC(C(=O)N3Cc4cncc(C#N)c4OC[C@H]3C)CC2)ncc1F [Example 120, (3R)-4-(1-(5-fluoro-4-methoxypyrimidin-2-yl)piperidine-4-carbonyl)-3-methyl-2,3,4,5-tetrahydropyrido[3,4-f][1,4]oxazepine-9-carbonitrile] | 0.1 to 100
CC(C)(C)C(=O)N1CCOc2c(C#N)cncc2C1 [Example 175, 4-(2,2-dimethylpropanoyl)-3,5-dihydro-2H-pyrido[3,4-f][1,4]oxazepine-9-carbonitrile] | 0.1 to 100

Same assay, conditions: GST-hRIPK1 (8-327), mean of at least two independent experiments

Structure (SMILES) | IC50 [nM]
N#Cc1cncc2c1OCCN(C(=O)C1CCN(c3ccnc4c(F)cnn34)CC1F)C2 (single isomer, unassigned) [Example 304, 4-[3-Fluoro-1-(3-fluoropyrazolo[1,5-a]pyrimidin-7-yl)piperidine-4-carbonyl]-3,5-dihydro-2H-pyrido[3,4-f][1,4]oxazepine-9-carbonitrile] | 0.1 to 100
COc1cc(C(F)(F)F)nc(N2CCC(F)(C(=O)N3CCOc4c(C#N)cncc4C3)CC2)n1 [Example 232, 4-[4-fluoro-1-[4-methoxy-6-(trifluoromethyl)pyrimidin-2-yl]piperidine-4-carbonyl]-3,5-dihydro-2H-pyrido[3,4-f][1,4]oxazepine-9-carbonitrile] | 100 to 1000
N#Cc1cncc2c1OCCN(C(=O)C1CCN(c3ncc(F)cn3)C[C@@H]1F)C2 (stereo partly drawn) [Example 242, 4-[(3,4)-trans-3-fluoro-1-(5-fluoropyrimidin-2-yl)piperidine-4-carbonyl]-3,5-dihydro-2H-pyrido[3,4-f][1,4]oxazepine-9-carbonitrile] | 0.1 to 100
N#Cc1cncc2c1OCCN(C(=O)C1CCN(c3nc(F)c(F)cc3F)CC1)C2 [Example 288, 4-[1-(3,5,6-trifluoro-2-pyridyl)piperidine-4-carbonyl]-3,5-dihydro-2H-pyrido[3,4-f][1,4]oxazepine-9-carbonitrile] | 0.1 to 100
N#Cc1cncc2c1OCCN(C(=O)C1CCN(c3ncc(F)cn3)CC1F)C2 (single isomer, unassigned) [Example 305, 4-[3-Fluoro-1-(5-fluoropyrimidin-2-yl)piperidine-4-carbonyl]-3,5-dihydro-2H-pyrido[3,4-f][1,4]oxazepine-9-carbonitrile] | 100 to 1000
CC1(C(=O)N2CCOc3c(C#N)cncc3C2)CCN(c2ncccn2)CC1(F)F (single isomer, unassigned) [Example 298, 4-[3,3-Difluoro-4-methyl-1-pyrimidin-2-yl-piperidine-4-carbonyl]-3,5-dihydro-2H-pyrido[3,4-f][1,4]oxazepine-9-carbonitrile] | > 1000
N#Cc1cncc2c1OCCN(C(=O)C1CCN(c3ncc(F)cn3)C[C@@H]1F)C2 (stereo partly drawn) [Example 241, 4-[(3,4)-cis-3-fluoro-1-(5-fluoropyrimidin-2-yl)piperidine-4-carbonyl]-3,5-dihydro-2H-pyrido[3,4-f][1,4]oxazepine-9-carbonitrile] | 100 to 1000
CC(F)(F)C(C)(CF)C(=O)N1CCOc2c(C#N)cncc2C1 (stereo not shown) [Example 267, 4-[3,3-Difluoro-2-(fluoromethyl)-2-methyl-butanoyl]-3,5-dihydro-2H-pyrido[3,4-f][1,4]oxazepine-9-carbonitrile] | 100 to 1000
N#Cc1cncc2c1OCCN(C(=O)C1(F)CCN(c3ncc(F)n4ncnc34)CC1)C2 [Example 294, 4-[4-fluoro-1-(5-fluoro-[1,2,4]triazolo[1,5-a]pyrazin-8-yl)piperidine-4-carbonyl]-3,5-dihydro-2H-pyrido [3,4-f][1,4]oxazepine-9-carbonitrile] | 0.1 to 100
N#Cc1cncc2c1OCCN(C(=O)C1CCN(c3ncc(F)cn3)CC1(F)F)C2 (single isomer, unassigned) [Example 307, 4-[3,3-Difluoro-1-(5-fluoropyrimidin-2-yl)piperidine-4-carbonyl]-3,5-dihydro-2H-pyrido[3,4-f][1,4]oxazepine-9-carbonitrile] | 100 to 1000
CC(C)(C(=O)N1CCOc2c(C#N)cncc2C1)C1CC(n2nccn2)C1 (stereo not shown) [Example 275, 4-[2-Methyl-2-[3-(triazol-2-yl)cyclobutyl]propanoyl]-3,5-dihydro-2H-pyrido[3,4-f][1,4]oxazepine-9-carbonitrile] | 100 to 1000
